Source: US20230115176A1 (Ra Pharmaceuticals, Inc., priority 2019, published 2023)
Values after ≈ are worked out from the molar mass of the structure shown.

Molecular target: human C5 complement protein (Homo sapiens, UniProt P01031)
Experiment: Surface plasmon resonance (SPR), immobilized human C5, 37° C. (Example 18, Table 24)
Format: binding
Details: lowest value obtained where a range of concentrations was analyzed

human C5 complement protein, sequence (P01031 19-1676): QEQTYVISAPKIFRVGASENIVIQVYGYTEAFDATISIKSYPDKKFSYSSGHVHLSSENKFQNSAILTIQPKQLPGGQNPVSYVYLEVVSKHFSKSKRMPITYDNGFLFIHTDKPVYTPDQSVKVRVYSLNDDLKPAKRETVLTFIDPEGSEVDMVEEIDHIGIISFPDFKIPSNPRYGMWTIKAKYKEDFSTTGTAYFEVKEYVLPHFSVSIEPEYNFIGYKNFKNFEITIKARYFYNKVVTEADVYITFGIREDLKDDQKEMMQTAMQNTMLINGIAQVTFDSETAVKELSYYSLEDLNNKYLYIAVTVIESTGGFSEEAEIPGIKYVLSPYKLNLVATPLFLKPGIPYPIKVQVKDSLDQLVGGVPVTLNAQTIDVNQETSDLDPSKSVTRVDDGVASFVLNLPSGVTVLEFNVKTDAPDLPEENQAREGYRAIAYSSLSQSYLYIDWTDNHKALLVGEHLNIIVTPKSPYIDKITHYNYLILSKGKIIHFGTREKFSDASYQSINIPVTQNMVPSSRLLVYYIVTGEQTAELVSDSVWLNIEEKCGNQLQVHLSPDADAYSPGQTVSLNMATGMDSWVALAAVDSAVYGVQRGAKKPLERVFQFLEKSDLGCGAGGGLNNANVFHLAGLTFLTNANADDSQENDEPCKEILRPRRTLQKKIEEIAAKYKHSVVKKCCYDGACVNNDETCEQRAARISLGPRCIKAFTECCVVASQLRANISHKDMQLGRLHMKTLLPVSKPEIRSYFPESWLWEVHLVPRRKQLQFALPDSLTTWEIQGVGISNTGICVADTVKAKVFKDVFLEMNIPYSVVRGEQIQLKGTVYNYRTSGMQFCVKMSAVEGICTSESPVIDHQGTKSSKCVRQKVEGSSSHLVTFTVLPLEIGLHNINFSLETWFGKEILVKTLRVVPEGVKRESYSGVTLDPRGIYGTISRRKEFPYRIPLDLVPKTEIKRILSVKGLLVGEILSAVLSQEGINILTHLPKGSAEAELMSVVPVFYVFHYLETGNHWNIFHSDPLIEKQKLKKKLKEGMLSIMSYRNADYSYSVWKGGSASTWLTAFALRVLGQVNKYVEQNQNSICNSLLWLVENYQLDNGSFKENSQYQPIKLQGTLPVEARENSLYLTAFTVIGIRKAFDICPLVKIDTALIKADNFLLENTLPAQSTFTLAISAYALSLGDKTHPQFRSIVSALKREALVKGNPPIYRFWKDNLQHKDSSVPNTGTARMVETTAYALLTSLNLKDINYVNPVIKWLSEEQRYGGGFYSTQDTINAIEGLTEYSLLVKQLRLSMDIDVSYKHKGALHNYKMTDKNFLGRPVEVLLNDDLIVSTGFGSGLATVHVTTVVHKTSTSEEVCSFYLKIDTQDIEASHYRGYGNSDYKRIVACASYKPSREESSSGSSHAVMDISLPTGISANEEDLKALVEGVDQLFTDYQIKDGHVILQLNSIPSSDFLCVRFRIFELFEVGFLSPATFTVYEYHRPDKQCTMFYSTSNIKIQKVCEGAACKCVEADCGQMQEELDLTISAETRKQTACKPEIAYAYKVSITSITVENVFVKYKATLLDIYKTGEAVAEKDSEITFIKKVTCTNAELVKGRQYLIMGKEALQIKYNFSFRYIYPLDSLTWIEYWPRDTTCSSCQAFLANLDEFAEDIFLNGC

Structure (SMILES) | Kd
COc1ccc(N2CCCN(Cc3cccc4c3ccn4CC(=O)N(C)C)C2=O)cc1OCCC[C@H]1C[C@@H]1C (racemic) [CU0681] | 2.19 nM
COc1ccc(N2CCCN(Cc3ccnc4c3ccn4CC(=O)N(C)C)C2=O)cc1OCCC[C@H]1C[C@H]1C (racemic) [CU0737] | 8.1 nM
COc1ccc(N2CCCN(Cc3ccnc4c3c(Cl)cn4CC(=O)N(C)C)C2=O)cc1OCCCC(F)(F)C(F)(F)F [CU0502] | 0.32 nM
CCCCCOc1cc(N2CCCN(Cc3ccnc4c3c(Cl)cn4CC(=O)N3CC[C@H](OC)C3)C2=O)ccc1OC [CU0504] | 0.254 nM
CCCCCOc1cc(N2CCCN(Cc3cccc4c3c(I)cn4CC(=O)N(C)C)C2=O)ccc1OC [CU0508] | 0.009 nM
CCCCCOc1cc(N2CCCN(Cc3ccnc4c3c(Cl)cn4CC(=O)N3CCOC3)C2=O)ccc1OC [CU0509] | 0.069 nM
CCCCCOc1cc(N2CCCN(Cc3ccnc4c3c(Cl)cn4CC(=O)N(C)O)C2=O)ccc1OC [CU0514] | 0.093 nM

Molecular target: T1, Human C5 (Homo sapiens, UniProt P01031)
T1 construct: purchased Complement Technology
Experiment: Red blood cell (RBC) hemolysis assay, luminescent (Example 24, Table 29)
Format: cell-based
Details: sheep EA cells, […] C5-depleted human serum, 0.5 nM human C5, 1 hour at 37° C., luminescence (Table 29)
Text: Numbers in parenthesis following the compound number indicate alternate enantiomers (as distinguished by retention time during chromatographical separation).

T1 sequence (P01031 19-1676): as above

Structure (SMILES) | IC50
CCCCCOc1cc(N2CC[C@H](C)N(Cc3cccc4c3ccn4CC(=O)N3CCCC3)C2=O)ccc1OC [SC0001] | 8.4 nM
CCCCCOc1cc(N2CC[C@H](C)N(Cc3cccc4c3ccn4CC(=O)N3CCO[C@H](COC)C3)C2=O)ccc1OC [SC0002] | 8.7 nM
CCCCCOc1cc(N2CC[C@H](C)N(Cc3cccc4c3ccn4CC(=O)N3CCOC(CN(C)C)C3)C2=O)ccc1OC (some centres unmarked) [SC0007] | 13.6 nM
CCCCCOc1cc(N2CC[C@H](C)N(Cc3cccc4c3ccn4CC(=O)N(C)C)C2=O)ccc1OC [SC0008] | 18.5 nM
CCCCCOc1cc(N2CC[C@H](C)N(Cc3cccc4c3ccn4CC(=O)N3CCO[C@@H](COC)C3)C2=O)ccc1OC [SC0009] | 18.5 nM
CCCCCOc1cc(N2CC[C@H](C)N(Cc3cccc4c3ccn4CC(=O)N(C)c3cccnc3)C2=O)ccc1OC [SC0011] | 25.2 nM
CCCCCOc1cc(N2CC(CO)CN(Cc3cc(F)ccc3OC)C2=O)ccc1OC (centres unmarked) [SC0016(1)] | 8.4 nM
CCCCCOc1cc(N2CC(CO)CN(Cc3cc(F)ccc3OC)C2=O)ccc1OC (centres unmarked) [SC0016(2)] | 12.8 nM
CCCCCOc1cc(N2CC(C)CN(Cc3ccc(CC(=O)N(C)C)cc3OC)C2=O)ccc1OC (centres unmarked) [SC0017] | 28.2 nM
CCCCCOc1cc(N2CC(C)CN(Cc3cc(F)ccc3OC)C2=O)ccc1OC (centres unmarked) [SC0018] | 44.7 nM
CCCCCOc1cc(N2CC(C)CN(Cc3ccc(CC(=O)O)cc3OC)C2=O)ccc1OC (centres unmarked) [SC0019] | 55.9 nM
CCCCCOc1cc(N2C[C@H](C)CN(Cc3cc(F)ccc3OC)C2=O)ccc1OC [SC0020] | 66.8 nM
CCCCCOc1cc(N2C[C@@H](C)CN(Cc3cc(F)ccc3OC)C2=O)ccc1OC [SC0021] | 71.5 nM
CCCCCOc1cc(N2CC(O)(CO)CN(Cc3cc(F)ccc3OC)C2=O)ccc1OC (centres unmarked) [SC0022] | 140 nM
CCCCCOc1cc(N2CC(COCc3ccncn3)CN(Cc3cc(F)ccc3OC)C2=O)ccc1OC (centres unmarked) [SC0023] | 111 nM
CCCCCOc1cc(N2CC(COCC(=O)O)CN(Cc3cc(F)ccc3OC)C2=O)ccc1OC (centres unmarked) [SC0024] | 59.3 nM
CCCCCOc1cc(N2CC(COCC(=O)N(C)C)CN(Cc3cc(F)ccc3OC)C2=O)ccc1OC (centres unmarked) [SC0025] | 59.4 nM
CCCCCOc1cc(N2CC(COCC(=O)N(C)CCO)CN(Cc3cc(F)ccc3OC)C2=O)ccc1OC (centres unmarked) [SC0026] | 59.7 nM
CCCCCOc1cc(N2CC(CO)CN(Cc3ccc(Br)cc3OC)C2=O)ccc1OC (centres unmarked) [SC0027] | 65.1 nM
CCCCCOc1cc(N2CC(COCC(N)=O)CN(Cc3cc(F)ccc3OC)C2=O)ccc1OC (centres unmarked) [SC0028] | 53.7 nM

Structure (SMILES) | IC50
CCCCCOc1cc(N2CC(COCC(=O)N3CCOCC3)CN(Cc3cc(F)ccc3OC)C2=O)ccc1OC (centres unmarked) [SC0029] | 84.5 nM
CCCCCOc1cc(N2CC(COCC(=O)NC)CN(Cc3cc(F)ccc3OC)C2=O)ccc1OC (centres unmarked) [SC0030] | 94.5 nM
CCCCCOc1cc(N2CC(Cn3cc(C)cn3)CN(Cc3cc(F)ccc3OC)C2=O)ccc1OC (centres unmarked) [SC0031] | 96 nM
CCCCCOc1cc(N2CC(Cn3cc(-c4cnccn4)cn3)CN(Cc3cc(F)ccc3OC)C2=O)ccc1OC (centres unmarked) [SC0032] | 99.8 nM
CCCCCOc1cc(N2CC(Cn3cccn3)CN(Cc3cc(F)ccc3OC)C2=O)ccc1OC (centres unmarked) [SC0033] | 101 nM
CCCCCOc1cc(N2CC(CN)CN(Cc3cc(F)ccc3OC)C2=O)ccc1OC (centres unmarked) [SC0034] | 115 nM
CCCCCOc1cc(N2CC(Cn3cncn3)CN(Cc3cc(F)ccc3OC)C2=O)ccc1OC (centres unmarked) [SC0035] | 122 nM
CCCCCOc1cc(N2CC(CNC(=O)C(F)(F)F)CN(Cc3cc(F)ccc3OC)C2=O)ccc1OC (centres unmarked) [SC0036] | 122 nM
CCCCCOc1cc(N2CC(COCC(=O)NCCOC)CN(Cc3cc(F)ccc3OC)C2=O)ccc1OC (centres unmarked) [SC0037] | 124 nM
CCCCCOc1cc(N2CC(Cn3cc(-c4ccccn4)nn3)CN(Cc3cc(F)ccc3OC)C2=O)ccc1OC (centres unmarked) [SC0038] | 129 nM
CCCCCOc1cc(N2CC(Cn3cc(CO)nn3)CN(Cc3cc(F)ccc3OC)C2=O)ccc1OC (centres unmarked) [SC0040] | 208 nM
CCCCCOc1cc(N2CC(Cn3cc4ccccc4n3)CN(Cc3cc(F)ccc3OC)C2=O)ccc1OC (centres unmarked) [SC0041] | 251 nM
CCCCCOc1cc(N2CC(Cn3ccnc3)CN(Cc3cc(F)ccc3OC)C2=O)ccc1OC (centres unmarked) [SC0042] | 258 nM
CCCCCOc1cc(N2CC(Cn3ncc4ccccc43)CN(Cc3cc(F)ccc3OC)C2=O)ccc1OC (centres unmarked) [SC0043] | 337 nM
CCCCCOc1cc(N2CC(C(N)=O)CN(Cc3cc(F)ccc3OC)C2=O)ccc1OC (centres unmarked) [SC0044] | 14.9 nM
CCCCCOc1cc(N2CC(C(=O)N3CCS(=O)(=O)C3)CN(Cc3cc(F)ccc3OC)C2=O)ccc1OC (centres unmarked) [SC0045] | 24.3 nM
CCCCCOc1cc(N2CC(C(=O)NC)CN(Cc3cc(F)ccc3OC)C2=O)ccc1OC (centres unmarked) [SC0046] | 33 nM
CCCCCOc1cc(N2CC(C(=O)NCCOC)CN(Cc3cc(F)ccc3OC)C2=O)ccc1OC (centres unmarked) [SC0047] | 36.2 nM
CCCCCOc1cc(N2CC(C(=O)N(C)C)CN(Cc3cc(F)ccc3OC)C2=O)ccc1OC (centres unmarked) [SC0048] | 52.3 nM
CCCCCOc1cc(N2CC(C(=O)N(C)CCO)CN(Cc3cc(F)ccc3OC)C2=O)ccc1OC (centres unmarked) [SC0049] | 68.1 nM

Structure (SMILES) | IC50
CCCCCOc1cc(N2CC(C(=O)Nc3ncco3)CN(Cc3cc(F)ccc3OC)C2=O)ccc1OC (centres unmarked) [SC0050] | 76.2 nM
CCCCCOc1cc(N2CC(C(=O)N3CCOCC3)CN(Cc3cc(F)ccc3OC)C2=O)ccc1OC (centres unmarked) [SC0051] | 111 nM
CCCCCOc1cc(N2CC(CNC(=O)c3cnco3)CN(Cc3cc(F)ccc3OC)C2=O)ccc1OC (centres unmarked) [SC0053] | 24.2 nM
CCCCCOc1cc(N2CC(CNC(=O)c3ccccn3)CN(Cc3cc(F)ccc3OC)C2=O)ccc1OC (centres unmarked) [SC0054] | 34.8 nM
CCCCCOc1cc(N2CC(CNC(=O)C(=O)N(C)C)CN(Cc3cc(F)ccc3OC)C2=O)ccc1OC (centres unmarked) [SC0055] | 38.2 nM
CCCCCOc1cc(N2CC(CNC(=O)COC)CN(Cc3cc(F)ccc3OC)C2=O)ccc1OC (centres unmarked) [SC0056] | 42.5 nM
CCCCCOc1cc(N2CC(CNC(=O)c3ccnn3C)CN(Cc3cc(F)ccc3OC)C2=O)ccc1OC (centres unmarked) [SC0057] | 47.5 nM
CCCCCOc1cc(N2CC(O)CN(Cc3cc(F)ccc3OC)C2=O)ccc1OC (centres unmarked) [SC0058] | 50.8 nM
CCCCCOc1cc(N2CC(C(=O)O)CN(Cc3cc(F)ccc3OC)C2=O)ccc1OC (centres unmarked) [SC0059] | 57.7 nM
C=C1CN(Cc2cc(F)ccc2OC)C(=O)N(c2ccc(OC)c(OCCCCC)c2)C1 [SC0060] | 22.5 nM
C=C1CN(Cc2ccc(Br)cc2OC)C(=O)N(c2ccc(OC)c(OCCCCC)c2)C1 [SC0062] | 173 nM
CCCCCOc1cc(N2C(=O)CN(Cc3cc(F)ccc3OC)C2=O)ccc1OC [SC0063] | 985 nM
CCCCCOc1cc(N2CC3(CC3)CN(Cc3ccnc4c3ccn4CC(=O)N(C)C)C2=O)ccc1OC [SC0065] | 39 nM
CCCCCOc1cc(N2CC3(CN(C(=O)OCC)C3)CN(Cc3cc(F)ccc3OC)C2=O)ccc1OC [SC0067] | 59 nM
CCCCCOc1cc(N2CC3(CN(Cc4cc(F)ccc4OC)C2=O)CC3(F)F)ccc1OC (centres unmarked) [SC0068] | 77.2 nM
CCCCCOc1cc(N2CC3(COC3)CN(Cc3ccnc4c3ccn4CC(=O)N(C)C)C2=O)ccc1OC [SC0069] | 129 nM
CCCCCOc1cc(N2CC3(CNC3)CN(Cc3cc(F)ccc3OC)C2=O)ccc1OC [SC0070] | 398 nM
CCCCCOc1cc(N2CC3(CN(Cc4cc(F)ccc4OC)C2=O)CN(S(=O)(=O)c2ccc(C)cc2)C3)ccc1OC [SC0071] | 870 nM
CCCCCOc1cc(N2C[C@@H](CO)CN(Cc3cc(F)ccc3OC)C2=O)ccc1OC [SC0072] | 14.2 nM

System: not listed separately
Experiment: Kinetic solubility in PBS pH 7.4, HPLC-UV (Example 21, Table 27)
Format: physicochemical
Details: phosphate buffered saline, aqueous buffer, kinetic from dmso stock, 0.5 M PBS, shaken minimum 24 h at approximately 25° C., HPLC-UV 270 nm
Procedure, shortened: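 10 mM DMSO stock diluted into 0.05 M PBS pH 7.4 (5% DMSO final), in triplicate, shaken ≥24 h at ~25 °C, then filtered by centrifugation. Supernatant concentration by HPLC-UV at 270 nm against external DMSO standards (15.6–500.0 μM).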

Structure (SMILES) | solubility kinetic
CCCCCOc1cc(N2CC[C@H](C)N(Cc3cccc4c3ccn4CC(=O)N3CCCC3)C2=O)ccc1OC [SC0001] | 66 µM (≈ 36.1 µg/mL)
CCCCCOc1cc(N2CC[C@H](C)N(Cc3cccc4c3ccn4CC(=O)N3CCO[C@H](COC)C3)C2=O)ccc1OC [SC0002] | 111 µM (≈ 67.4 µg/mL)
CCCCCOc1cc(N2CC[C@H](C)N(Cc3cccc4c3ccn4CC(=O)N3CCOC(CN(C)C)C3)C2=O)ccc1OC (some centres unmarked) [SC0007] | 445 µM (≈ 276 µg/mL)
CCCCCOc1cc(N2CC[C@H](C)N(Cc3cccc4c3ccn4CC(=O)N(C)C)C2=O)ccc1OC [SC0008] | 103 µM (≈ 53.6 µg/mL)
CCCCCOc1cc(N2CC[C@H](C)N(Cc3cccc4c3ccn4CC(=O)N3CCO[C@@H](COC)C3)C2=O)ccc1OC [SC0009] | 167 µM (≈ 101 µg/mL)
CCCCCOc1cc(N2CC[C@H](C)N(Cc3cccc4c3ccn4CC(=O)N(C)c3cccnc3)C2=O)ccc1OC [SC0011] | 43 µM (≈ 25.1 µg/mL)
CCCCCOc1cc(N2CC(C)CN(Cc3ccc(CC(=O)N(C)C)cc3OC)C2=O)ccc1OC (centres unmarked) [SC0017] | 398 µM (≈ 204 µg/mL)
C=C1CN(Cc2cc(F)ccc2OC)C(=O)N(c2ccc(OC)c(OCCCCC)c2)C1 [SC0060] | < 10 µM
